Measurements as given in the METLIN SMRT retention time set (Domingo-Almenara et al. 2019).

Assay: gradient 5% acetonitrile 3 min, to 50% in 2 min, to 85% in 15 min, held 3 min, 100 µL/min
Settings: column: Zorbax Extend-C18 2.1 x 50 mm; eluents: water / acetonitrile, 0.1% formic acid
Procedure, shortened: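 Each retention time is based on an adduct peak selected computationally and verified by manual inspection. Measurements used HPLC–quadrupole time-of-flight mass spectrometry in positive and negative ionization mode on mixtures of ~100 pure standards. Chromatography ran on a Zorbax Extend-C18 column (2.1 × 50 mm, 1.8 μm) at 100 μL/min with water and acetonitrile, each containing 0.1% formic acid, and dead and dwell volumes of 40 μL and 900 μL.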

Row | SMILES | RP-LC retention time [s]
1 | CCCS(=O)(=O)c1nc2ccc(NS(=O)(=O)c3cc(C)ccc3C)cc2s1 | 958
2 | COc1ccc2[nH]cc(CCNC(=O)c3ccc(N4CCCC4)c(S(=O)(=O)N4CCCC4)c3)c2c1 | 921
3 | CCC(C(=O)NCCc1ccc(Cl)cc1)n1cnc2oc(C)c(C)c2c1=O (centres undefined) | 924
4 | Cc1ccc(C(=O)N2CCCCCCNC(=O)[C@@H]3CCCC[C@@H]32)s1 | 813
5 | Cc1ccc(Cl)cc1NC(=O)C1CCN(S(=O)(=O)c2ccc3c(c2)NC(=O)C(C)O3)CC1 (centres undefined) | 834
6 | CCC(C)(C)NC(=O)c1ccc2c(c1)N(C(=O)NC)CC2 | 705
7 | O=C1CCC(C(=O)N2C[C@@H](COCC3CC3)[C@H](c3ccccn3)C2)=NN1 | 583
8 | CC(C)CN1C(=O)c2ccccc2C(C(=O)NCCN2CCN(C)CC2)C1c1cccs1 (centres undefined) | 617
9 | Cn1nc(C(=O)N2CCCCC2)c2c1CCN(C(=O)CCC(=O)NC1CCCCCC1)C2 | 728
10 | CCOC(=O)c1cccc(NC(=O)c2sccc2S(=O)(=O)N(C)c2ccc(OCC)cc2)c1 | 1220
11 | O=C(NCC(O)c1ccc(C(F)(F)F)cc1)C(=O)Nc1ccc(F)cc1F (centres undefined) | 880
12 | O=C(NCc1ccc(F)cc1)c1cc(N2CCCC2)n2nccc2n1 | 957
13 | COc1ccc(OC)c(S(=O)(=O)N2CC(c3nc(-c4ccsc4)nn3C)C2)c1 | 816
14 | O=C(Nc1cn(-c2ccc(C(=O)N3CCN(c4cccc(Cl)c4)CC3)cc2)cn1)C1CC1 | 810
15 | Cc1cc(C)n(-c2cc(NCc3ccccn3)ncn2)n1 | 600
16 | COc1ccccc1NC(=O)Nc1nc(CC(=O)N2CCC(C(N)=O)CC2)cs1 | 640
17 | O=C(Nc1ccccn1)C1CCN(C(=O)C2Sc3ccccc3NC2=O)CC1 (centres undefined) | 622
18 | COc1ccc(C2(C(=O)N3CCCN(Cc4noc(-c5ccccc5)n4)CC3)CC2)cc1 | 703
19 | CCOC(=O)CNC(=O)N1CCCN(c2nc3cc(Br)ccc3n3cccc23)CC1 | 671
20 | CCn1c(=O)c2ccccc2n(Cc2nc(-c3cccc(OC)c3)no2)c1=O | 992
21 | O=C(c1c(OCC2CC2)cc(=O)n2c1CCCCC2)N1CCOCC1 | 645
22 | COCC1(O)CCOC2(CCN(Cc3ccc(C)cc3C)CC2)C1 (centres undefined) | 559
23 | Cc1oc(-c2ccccc2)nc1Cn1ccn2nc(-c3cccs3)cc2c1=O | 1060

Row | SMILES | RP-LC retention time [s]
24 | CC(C)NC(=O)c1nc2ccccn2c1-c1ccc(Cl)cc1 | 846
25 | Cc1ccccc1CNC(=O)C1CCCN1S(=O)(=O)c1cc2c(cc1C)NC(=O)C(C)O2 (centres undefined) | 814
26 | CC(C)C(=O)Nc1ccc(N2CCN(c3ccccc3)C2=O)nc1 | 832
27 | CC(=O)Oc1ccccc1C1=NN(C(C)=O)C(c2ccc(Cl)cc2)O1 (centres undefined) | 1020
28 | CC(C)n1nnc2cc(S(=O)(=O)N3CCCC3C(=O)N3CCN(c4ccccn4)CC3)ccc21 (centres undefined) | 609
29 | Cc1cc(C)c(NC(=O)Cn2cc3c(n2)CCCC3)c(C)c1 | 969
30 | Cc1cc(-c2nnc(-c3ccc(F)cc3)o2)c(C)n1CC(=O)NCc1ccccc1F | 950
31 | CC(C)n1cnc(S(=O)(=O)N2CCC(C(=O)Nc3cccc(-c4ccno4)c3)CC2)c1 | 753
32 | CCOC(=O)N1CCC(NC(=O)c2coc(NC(=O)c3ccco3)n2)CC1 | 605
33 | COc1ccc2c(c1)C1(CCN(S(=O)(=O)c3ccc4c(c3)oc(=O)n4C)C1)C(=O)N2 (centres undefined) | 746
34 | COc1cc(-c2noc(Cc3nnc(-c4cc(F)cc(F)c4)o3)n2)cc(OC)c1OC | 968
35 | COc1ccc(S(=O)(=O)Cc2nc(-c3ccccc3Br)no2)cc1 | 905
36 | O=C(NC1CCCC1)NC1CCN(c2nc3cccnc3n(Cc3ccccc3)c2=O)CC1 | 990
37 | Cc1nn(-c2nc(-c3ccccc3)cs2)c(C)c1CC(=O)Nc1ccc(F)cc1 | 1130
38 | Cc1ccc(NS(=O)(=O)c2ccc(-c3c(C)noc3C)cc2)c(Cl)c1 | 1020
39 | O=C(NCC1CCCO1)N1CC(c2nc(CCOCc3ccccc3)no2)C1 (centres undefined) | 713
40 | O=C(NCC(O)C1CCCCC1)c1ccsc1 (centres undefined) | 689
41 | Cc1cc(N2CCCC2)nc(N2CCN(S(=O)(=O)c3ccc(-c4ccccc4)cc3)CC2)n1 | 911
42 | CCc1cccc(C)c1Nc1c(-c2ccc(F)cc2)nc2ncccn12 | 886
43 | CN1CCCc2cc(C(=O)NCc3ccc(F)cc3)sc21 | 906
44 | CCNC(=O)C1CCN(S(=O)(=O)c2ccc3c(c2)NC(=O)CO3)CC1 | 623
45 | COc1ccc(C)cc1NC(=O)N1CCc2nc[nH]c2C1 | 592
46 | Cc1ccc(C2=NC3(CCN(C(=O)c4ccc5c(c4)OCO5)CC3)NC2=O)cc1C | 831

Row | SMILES | RP-LC retention time [s]
47 | Cc1cccc(CNC(=O)C2(C)Oc3cccnc3NC2=O)c1 (centres undefined) | 704
48 | CCOC(=O)c1c(S(=O)(=O)N2CCC(C(=O)Nc3ccccc3)CC2)c(C)n(C)c1C | 834
49 | COc1cccc(S(=O)(=O)N2CCC(Cc3nncn3C)CC2)c1 | 641
50 | CC(=O)N1CCC2(CC1)OC(=O)C(C)=C2C(=O)NC1CCN(Cc2ccccc2)CC1 | 581
51 | COc1ccc(-c2nnc(-c3cc(S(=O)(=O)N4CCCC4)ccc3Cl)o2)cc1 | 1040
52 | O=C(Cc1ccccc1Cl)Nc1ccc(-c2nc(-c3ccccc3)co2)cc1 | 1150
53 | CC1=NS(=O)(=O)N(Cc2ccccc2)C=C1C(=O)OCc1ccc(F)cc1 | 1080
54 | COc1ccc(OC)c2sc(N(CCN(C)C)C(=O)c3nc4ccccc4s3)nc12 | 715
55 | O=C(CSc1ncnc2c1oc1ccccc12)Nc1ccc(F)cc1F | 934
56 | C[C@H]1CCCC(=O)CCC/C=C/c2c(O)cc(O)cc2C(=O)O1 | 888
57 | CCCN(C)c1nccnc1OC1CCN(C(=O)C2CC2)C1 (centres undefined) | 724
58 | CCOc1ccc(-c2noc(CN3C(=O)COc4cc(Cl)ccc43)n2)cc1OC | 1080
59 | O=C(CCn1nnc2cc(-c3noc(-c4ccccc4F)n3)ccc21)N1CCCC1 | 865
60 | CC(C)c1nc(N2CCCC2=O)sc1C(=O)NCc1ccc(F)cc1 | 970
61 | CC(C)CNC(=O)c1n[nH]c2c1CCCCCC2 | 850
62 | O=C(Nc1ccccc1)c1cccc(N2CC(C(=O)Nc3cccc(Cl)c3)CC2=O)c1 (centres undefined) | 912
63 | CC(C)n1ncc(NC(=O)c2ccc(F)cc2)c(N2CCOCC2)c1=O | 883
64 | Cc1ccc(CNC(=O)c2ccc3c(c2)N(C)C(=O)C2CCCCN32)cc1 (centres undefined) | 908
65 | O=C(NCc1ccc(N2CCCC2)nc1)c1cccc(Br)c1 | 646
66 | CCOC(=O)c1cc(S(=O)(=O)N2CCCC2C(=O)Nc2cc(Cl)c(OC)cc2OC)cn1C (centres undefined) | 1010
67 | COc1ccc(OC)c(NC(=O)COc2cc(C(C)(C)C)nn2-c2nc(C)cc(C)n2)c1 | 881
68 | CCn1cc(-c2nc(C)c(C(=O)Nc3ccccc3F)s2)c2cccnc21 | 1000
69 | Cc1ccc2nc(NC3=NCN(Cc4cccnc4)CN3)nc(C)c2c1 | 587

Row | SMILES | RP-LC retention time [s]
70 | Cn1nccc1C(=O)N1CCN(C(=O)c2cc(-c3ccncc3)n[nH]2)CC1 | 523
71 | Cc1ccc(-c2ccc(N3CCCC(C(=O)NCCC4=CCCCC4)C3)nn2)cc1 (centres undefined) | 855
72 | Cc1ccc2c(C(=O)NCc3ccccc3Cl)cc(NC(=O)C(C)C)cc2n1 | 674
73 | CCn1c(CCc2ccccc2NS(=O)(=O)c2ccc(F)cc2F)nc2ccccc21 | 755
74 | CCCCS(=O)(=O)NCCc1noc(-c2ccccc2)n1 | 615
75 | CCOc1cccc2cc(C(=O)Nc3ccccc3S(C)(=O)=O)oc12 | 931
76 | CCN1C=C(C(=O)OCc2cccc(F)c2)C(C)=NS1(=O)=O | 968
77 | O=C(Nc1ccc2c(c1)N(C(=O)c1ccco1)CCC2)Oc1ccccc1 | 850
78 | COc1ccc(C2CC(=O)N(c3cccc(F)c3)C(=O)C2)cc1OC | 839
79 | COc1ccc(C2CC(=O)N(c3ccc(F)c(Cl)c3)C(=O)C2)cc1OC | 915
80 | CCNC(=O)N1CCc2nc(-c3ccc(F)cc3)ncc2C1 | 752
81 | CC1CCCN(c2nn(CC(=O)Nc3ccc4c(c3)OCCO4)c(=O)c3ccccc23)C1 (centres undefined) | 1030
82 | COc1ccc(C)cc1NC(=O)c1cn2c(n1)CSCC2 | 841
83 | Oc1c(C(Nc2ccccc2)c2ccccn2)ccc2cccnc12 (centres undefined) | 763
84 | CCCN1C(=O)Cc2ccccc2C1C(=O)NCc1ccccc1Br (centres undefined) | 831
85 | CCc1ccc(N2C(=O)C3N=NN(Cc4nc(-c5ccc(Br)cc5)no4)C3C2=O)cc1 (centres undefined) | 1130
86 | N#Cc1ccc(C(=O)N2CCCC2c2nc(-c3cccc(C(F)(F)F)c3)no2)c(F)c1 (centres undefined) | 1060
87 | O=C(Nc1ccc2c(c1)OCO2)C1CCc2sc(C(=O)N3CCCC3)cc2C1 (centres undefined) | 730
88 | Cc1cc(C)c(NC(=O)Cn2c(C)nc3onc(C)c3c2=O)c(C)c1 | 814
89 | CCCN1C(=O)COc2ccc(-c3csc(NC(=O)/C=C/c4ccc(OCC)c(OC)c4)n3)cc21 | 1090
